Reference: patent US10479789B2, “Pyrido[1,2-A]pyrimidone analog, crystal form thereof, intermediate thereof and preparation method therefor” (Chia Tai Tianqing Pharmaceutical Group Co., Ltd., priority 2015, dated 2019)

What was measured:
[1] = Solid state stability of crystalline Form IX under high temperature, high humidity and strong light; assay type: physicochemical
Method: About 10 mg of crystalline Form IX of Compound 1 was weighed and placed on a bottom of a glass sample bottle to form a thin layer. For the samples placed under the conditions of 60° C. and room temperature/92.5% RH, the top of the bottles was covered with aluminum foil, and several holes were made in aluminum foil, which is ensure that the samples were fully exposed to the air in the environment; for the samples placed under strong light (5 Klx), the bottles were sealed with a screw cap. Another sample of 15 mg of crystalline Form IX was taken and placed according to the method as described above for detecting the crystalline form of the sample. The samples placed under different conditions were sampled and detected on day 5 and day 10, and the detection results were compared with the initial detection results on day 0.

[2] = Stability of crystalline Form IX of Compound 1 in different solvents (XRPD after stirring); assay type: physicochemical; conditions: stirred at 40° C.; for Results (crystalline state by XRPD): 2 days
Method: Several samples of crystalline Form IX of Compound 1 in a suitable amount were taken, respectively added to 0.3-0.4 mL of a single solvent or a mixed solvent as shown in the following table, and stirred at 40° C. After stirring for 2 days, the samples were centrifuged. Solid in the samples was collected and its crystalline state was detected by XRPD.

[3] = High temperature 60° C. (opened), day 5
[4] = High temperature 60° C. (opened), day 5 and day 10
[5] = High temperature 60° C. (opened), day 10
[6] = Light 5KIx (closed), day 5 and day 10
[7] = Room temperature/92.5% RH (opened), day 5
[8] = Room temperature/92.5% RH (opened), day 5 and day 10
[9] = Room temperature/92.5% RH (opened), day 10

COc1ncc(-c2ccc3ncc(OCCN(C)C)c(=O)n3c2)cc1NS(=O)(=O)c1ccc(F)cc1Cl [crystalline Form IX of Compound 1]
0.31%: Total impurities (%) ([1]; Light 5KIx (closed), day 5)
101.05%: Content (%) [1, 7]
100.64%: Content (%) [1, 3]
100.55%: Content (%) [1, 5]
101.16%: Content (%) [1, 9]
100.43%: Content (%) ([1]; Light 5KIx (closed), day 5)
crystalline: Crystalline Form [1, 4] | Crystalline Form [1, 6] | Crystalline Form [1, 8] | Crystalline Form ([1]; day 0 (initial)) | Results (crystalline state by XRPD) ([2]; acetone) | Results (crystalline state by XRPD) ([2]; acetone-water (1:2)) | Results (crystalline state by XRPD) ([2]; acetonitrile) | Results (crystalline state by XRPD) ([2]; ethanol) | Results (crystalline state by XRPD) ([2]; ethanol-water (3:1)) | Results (crystalline state by XRPD) ([2]; ethyl acetate) | Results (crystalline state by XRPD) ([2]; isopropanol) | Results (crystalline state by XRPD) ([2]; isopropanol-water (1:1)) | Results (crystalline state by XRPD) ([2]; methanol) | Results (crystalline state by XRPD) ([2]; methanol-water (3:1)) | Results (crystalline state by XRPD) ([2]; tetrahydrofuran)
101.10%: Content (%) ([1]; Light 5KIx (closed), day 10)
White: Appearance [1, 4] | Appearance [1, 6] | Appearance [1, 8] | Appearance ([1]; day 0 (initial))
101.02%: Content (%) ([1]; day 0 (initial))
0.33%: Total impurities (%) [1, 5]
0.32%: Total impurities (%) [1, 3] | Total impurities (%) ([1]; Light 5KIx (closed), day 10) | Total impurities (%) [1, 7] | Total impurities (%) [1, 9] | Total impurities (%) ([1]; day 0 (initial))
suspension: Appearance (2 days) ([2]; acetone) | Appearance (2 days) ([2]; acetone-water (1:2)) | Appearance (2 days) ([2]; acetonitrile) | Appearance (2 days) ([2]; ethanol) | Appearance (2 days) ([2]; ethanol-water (3:1)) | Appearance (2 days) ([2]; ethyl acetate) | Appearance (2 days) ([2]; isopropanol) | Appearance (2 days) ([2]; isopropanol-water (1:1)) | Appearance (2 days) ([2]; methanol) | Appearance (2 days) ([2]; methanol-water (3:1)) | Appearance (2 days) ([2]; tetrahydrofuran)
